Test results as given in patent EP0908457B1, “3-(1,2-benzisothiazol- and isoxazol-5-Y1)-2,4(1H,3H)-pyrimidinedione or thione and 3-(1,2-benzisothiazol- and isoxazol-5-y1)-4(3H)-pyrimidinone or thione herbicidal agents” (BASF AKTIENGESELLSCHAFT, priority 1997, dated 1999).

Legend:
[1] = test system: Oryza sativa, (L.) Tebonnet; assay: Rice tolerance to post-transplant applications under flooded paddy conditions (Example 187), ORYSAT (Rice, Tebonnet); settings: rated three to four weeks after treatment; on herbicidal effect rating ORYSAT: meaning of each grade not given here
[2] = test system: Monochoria vaginalis, Presl.; assay: Preemergence weed control under flooded paddy conditions, MOOVA (Monochoria); assay type: in vivo; settings: flooded paddy, rated three to four weeks after treatment; on herbicidal effect rating, MOOVA: meaning of each grade not given here
[3] = test system: Echinochloa oryzoides (Ard.) Fritsch.; assay: Preemergence weed control under flooded paddy conditions, ECHORC (Watergrass (Calif.)); assay type: in vivo; settings: flooded paddy, rated three to four weeks after treatment; on herbicidal effect rating, ECHORC: meaning of each grade not given here
[4] = test system: Sagittaria pygmaea, L.; assay: Preemergence weed control under flooded paddy conditions, SAGPY (Arrowhead (Pygmaea)); assay type: in vivo; settings: flooded paddy, rated three to four weeks after treatment; on herbicidal effect rating, SAGPY: meaning of each grade not given here
[5] = test system: Cyperus serotinus, Rottb.; assay: Preemergence weed control under flooded paddy conditions, CYPSE (Flatsedge); assay type: in vivo; settings: rated three to four weeks after treatment; on herbicidal effect rating, CYPSE: meaning of each grade not given here
[6] = test system: Cyperus iria; assay: Preemergence weed control under flooded paddy conditions, CYPIR (Rice Flatsedge); assay type: in vivo; settings: flooded paddy, rated three to four weeks after treatment; on herbicidal effect rating, CYPIR: meaning of each grade not given here
[7] = Rate 0.0320 kg/ha, preemergence
[8] = Rate 0.0620 kg/ha, preemergence
[9] = Rate 0.1250 kg/ha, preemergence
[10] = Rate 0.2500 kg/ha, preemergence
[11] = 0.0313 kg/ha, preemergence weeds
[12] = 0.0625 kg/ha, preemergence weeds
[13] = 0.1250 kg/ha, preemergence weeds
[14] = 0.2500 kg/ha, preemergence weeds

SMILES: Cn1c(C(F)(F)F)cc(=O)n(-c2ccc3snc(C(=O)NS(=O)(=O)/C=C/c4ccccc4)c3c2)c1=O [Example 501, 1,2-Benzisothiazole-3-carboxamide, 5-[3,6-dihydro-3-methyl-2,6-dioxo-4-(trifluoromethyl)-1(2H)-pyrimidinyl]-N-(styrylsulfonyl)-, (E)-]
- ORYSAT herbicidal rating (rice tolerance) ([1]; 0.0320 kg/ha): 0.0
- ORYSAT herbicidal rating (rice tolerance) ([1]; 0.0620 kg/ha): 1.0
- ORYSAT herbicidal rating (rice tolerance) ([1]; 0.1250 kg/ha): 3.0
- ORYSAT herbicidal rating (rice tolerance) ([1]; 0.2500 kg/ha): 4.0
- MOOVA herbicidal rating ([2]; 0.0320 kg/ha, preemergence): 6.0
- MOOVA herbicidal rating ([2]; 0.0620 kg/ha, preemergence): 6.0
- MOOVA herbicidal rating ([2]; 0.1250 kg/ha, preemergence): 7.0
- MOOVA herbicidal rating ([2]; 0.2500 kg/ha, preemergence): 9.0
- ECHORC herbicidal rating ([3]; 0.0320 kg/ha, preemergence): 4.0
- ECHORC herbicidal rating ([3]; 0.0620 kg/ha, preemergence): 5.0
- ECHORC herbicidal rating ([3]; 0.1250 kg/ha, preemergence): 5.0
- ECHORC herbicidal rating ([3]; 0.2500 kg/ha, preemergence): 7.0
- SAGPY herbicidal rating ([4]; 0.0320 kg/ha, preemergence): 2.0
- SAGPY herbicidal rating ([4]; 0.0620 kg/ha, preemergence): 3.0
- SAGPY herbicidal rating ([4]; 0.1250 kg/ha, preemergence): 5.0
- SAGPY herbicidal rating ([4]; 0.2500 kg/ha, preemergence): 6.0
- CYPSE herbicidal rating ([5]; 0.0320 kg/ha, preemergence): 0.0
- CYPSE herbicidal rating ([5]; 0.0620 kg/ha, preemergence): 0.0
- CYPSE herbicidal rating ([5]; 0.1250 kg/ha, preemergence): 3.0
- CYPSE herbicidal rating ([5]; 0.2500 kg/ha, preemergence): 5.0
- CYPIR herbicidal rating ([6]; 0.0320 kg/ha, preemergence): 0.0
- CYPIR herbicidal rating ([6]; 0.0620 kg/ha, preemergence): 2.0
- CYPIR herbicidal rating ([6]; 0.1250 kg/ha, preemergence): 4.0
- CYPIR herbicidal rating ([6]; 0.2500 kg/ha, preemergence): 6.0

SMILES: Cc1ccc(OCC(=O)OCCCl)c(-c2nsc3ccc(-n4c(=O)cc(C(F)(F)F)n(C)c4=O)cc23)c1 [Example 71, 2-Chloroethyl {{2-{5-[3,6-dihydro-3-methyl-2,6-dioxo-4-(trifluoromethyl)-1(2H)-pyrimidinyl]-1,2-benzisothiazol-3-yl}-p-tolyl}oxy}acetate]
- herbicidal effect rating, ORYSAT (rice tolerance) ([1]; 0.0313 kg/ha): 2.0
- herbicidal effect rating, ORYSAT (rice tolerance) ([1]; 0.0625 kg/ha): 3.5
- herbicidal effect rating, ORYSAT (rice tolerance) ([1]; 0.1250 kg/ha): 5.5
- herbicidal effect rating, ORYSAT (rice tolerance) ([1]; 0.2500 kg/ha): 7.0
- herbicidal effect rating, MOOVA ([2]; 0.0313 kg/ha, preemergence): 8.0
- herbicidal effect rating, MOOVA ([2]; 0.0625 kg/ha, preemergence): 9.0
- herbicidal effect rating, MOOVA ([2]; 0.1250 kg/ha, preemergence): 9.0
- herbicidal effect rating, MOOVA ([2]; 0.2500 kg/ha, preemergence): 9.0
- herbicidal effect rating, ECHORC ([3]; 0.0313 kg/ha, preemergence): 5.5
- herbicidal effect rating, ECHORC ([3]; 0.0625 kg/ha, preemergence): 7.5
- herbicidal effect rating, ECHORC ([3]; 0.1250 kg/ha, preemergence): 8.5
- herbicidal effect rating, ECHORC ([3]; 0.2500 kg/ha, preemergence): 9.0
- herbicidal effect rating, SAGPY ([4]; 0.0313 kg/ha, preemergence): 0.0
- herbicidal effect rating, SAGPY ([4]; 0.0625 kg/ha, preemergence): 0.0
- herbicidal effect rating, SAGPY ([4]; 0.1250 kg/ha, preemergence): 0.0
- herbicidal effect rating, SAGPY ([4]; 0.2500 kg/ha, preemergence): 4.0
- herbicidal effect rating, CYPSE ([5]; 0.0313 kg/ha, preemergence): 0.0
- herbicidal effect rating, CYPSE ([5]; 0.0625 kg/ha, preemergence): 0.0
- herbicidal effect rating, CYPSE ([5]; 0.1250 kg/ha, preemergence): 2.0
- herbicidal effect rating, CYPSE ([5]; 0.2500 kg/ha, preemergence): 9.0
- herbicidal effect rating, CYPIR ([6]; 0.0313 kg/ha, preemergence): 0.0
- herbicidal effect rating, CYPIR ([6]; 0.0625 kg/ha, preemergence): 0.0
- herbicidal effect rating, CYPIR ([6]; 0.1250 kg/ha, preemergence): 0.0
- herbicidal effect rating, CYPIR ([6]; 0.2500 kg/ha, preemergence): 2.0

SMILES: Cn1c(C(F)(F)F)cc(=O)n(-c2ccc3snc(COCc4ccc([N+](=O)[O-])cc4)c3c2)c1=O [Example 589, 2,4(1H,3H)-Pyrimidinedione, 1-methyl-3-{3-{[(p-nitrobenzyl)oxy]methyl}-1,2-benzisothiazol-5-yl}-6-(trifluoromethyl)-]
- herbicidal effect rating ORYSAT ([1]; Rate 0.0320 kg/ha): 0.0
- herbicidal effect rating ORYSAT ([1]; Rate 0.0620 kg/ha): 0.0
- herbicidal effect rating ORYSAT ([1]; Rate 0.1250 kg/ha): 0.0
- herbicidal effect rating ORYSAT ([1]; Rate 0.2500 kg/ha): 0.0
- herbicidal effect rating, MOOVA [2, 7]: 7.0
- herbicidal effect rating, MOOVA [2, 8]: 8.0
- herbicidal effect rating, MOOVA [2, 9]: 8.0
- herbicidal effect rating, MOOVA [2, 10]: 9.0
- herbicidal effect rating, ECHORC [3, 7]: 4.0
- herbicidal effect rating, ECHORC [3, 8]: 4.0
- herbicidal effect rating, ECHORC [3, 9]: 4.0
- herbicidal effect rating, ECHORC [3, 10]: 4.0
- herbicidal effect rating, SAGPY [4, 7]: 0.0
- herbicidal effect rating, SAGPY [4, 8]: 2.0
- herbicidal effect rating, SAGPY [4, 9]: 2.0
- herbicidal effect rating, SAGPY [4, 10]: 3.0
- herbicidal effect rating, CYPSE [5, 7]: 0.0
- herbicidal effect rating, CYPSE [5, 8]: 0.0
- herbicidal effect rating, CYPSE [5, 9]: 0.0
- herbicidal effect rating, CYPIR [6, 7]: 0.0
- herbicidal effect rating, CYPIR [6, 8]: 2.0
- herbicidal effect rating, CYPIR [6, 9]: 3.0
- herbicidal effect rating, CYPIR [6, 10]: 4.0

SMILES: Cc1ccc(OCC(=O)N(C)O)c(-c2nsc3ccc(-n4c(=O)cc(C(F)(F)F)n(C)c4=O)cc23)c1 [Example 355, Acetohydroxamic acid, 2-{{2-{5-[3,6-dihydro-3-methyl-2,6-dioxo-4-(trifluoromethyl)-1(2H)pyrimidinyl]-1,2-benzisothiazol-3-yl}-p-tolyl}oxy}-N-methyl-]
- herbicidal effect rating ORYSAT ([1]; Rate 0.0320 kg/ha): 2.5
- herbicidal effect rating ORYSAT ([1]; Rate 0.0620 kg/ha): 3.0
- herbicidal effect rating ORYSAT ([1]; Rate 0.1250 kg/ha): 5.5
- herbicidal effect rating ORYSAT ([1]; Rate 0.2500 kg/ha): 5.0
- herbicidal effect rating, MOOVA [2, 7]: 9.0
- herbicidal effect rating, MOOVA [2, 8]: 9.0
- herbicidal effect rating, MOOVA [2, 9]: 9.0
- herbicidal effect rating, MOOVA [2, 10]: 9.0
- herbicidal effect rating, ECHORC [3, 7]: 7.0
- herbicidal effect rating, ECHORC [3, 8]: 9.0
- herbicidal effect rating, ECHORC [3, 9]: 9.0
- herbicidal effect rating, ECHORC [3, 10]: 9.0
- herbicidal effect rating, SAGPY [4, 7]: 2.0
- herbicidal effect rating, SAGPY [4, 8]: 4.5
- herbicidal effect rating, SAGPY [4, 9]: 4.5
- herbicidal effect rating, SAGPY [4, 10]: 9.0
- herbicidal effect rating, CYPSE [5, 7]: 0.0
- herbicidal effect rating, CYPSE [5, 8]: 1.0
- herbicidal effect rating, CYPSE [5, 9]: 3.5
- herbicidal effect rating, CYPSE [5, 10]: 5.0
- herbicidal effect rating, CYPIR [6, 7]: 4.5
- herbicidal effect rating, CYPIR [6, 8]: 4.5
- herbicidal effect rating, CYPIR [6, 9]: 6.5
- herbicidal effect rating, CYPIR [6, 10]: 5.0

SMILES: Cc1ccc(S(=O)(=O)NC(=O)COc2ccc(C)cc2-c2nsc3ccc(-n4c(=O)cc(C(F)(F)F)n(C)c4=O)cc23)cc1 [Example 122, N-{{{2-{5-[3,6-Dihydro-3-methyl-2,6-dioxo-4-(trifluoromethyl)-1(2H)-pyrimidinyl]-1,2-benzisothiazol-3-yl}-p-tolyl}oxy}acetyl}-p-toluenesulfonamide]
- herbicidal effect rating, ORYSAT (rice tolerance) ([1]; 0.0313 kg/ha): 2.0
- herbicidal effect rating, ORYSAT (rice tolerance) ([1]; 0.0625 kg/ha): 3.0
- herbicidal effect rating, ORYSAT (rice tolerance) ([1]; 0.1250 kg/ha): 4.0
- herbicidal effect rating, ORYSAT (rice tolerance) ([1]; 0.2500 kg/ha): 4.0
- herbicidal effect rating, MOOVA [2, 11]: 6.0
- herbicidal effect rating, MOOVA [2, 12]: 8.0
- herbicidal effect rating, MOOVA [2, 13]: 9.0
- herbicidal effect rating, MOOVA [2, 14]: 9.0
- herbicidal effect rating, ECHORC [3, 11]: 4.0
- herbicidal effect rating, ECHORC [3, 12]: 7.0
- herbicidal effect rating, ECHORC [3, 13]: 8.0
- herbicidal effect rating, ECHORC [3, 14]: 9.0
- herbicidal effect rating, SAGPY [4, 11]: 0.0
- herbicidal effect rating, SAGPY [4, 12]: 0.0
- herbicidal effect rating, SAGPY [4, 13]: 0.0
- herbicidal effect rating, SAGPY [4, 14]: 0.0
- herbicidal effect rating, CYPSE [5, 11]: 0.0
- herbicidal effect rating, CYPSE [5, 12]: 0.0
- herbicidal effect rating, CYPSE [5, 13]: 0.0
- herbicidal effect rating, CYPSE [5, 14]: 0.0
- herbicidal effect rating, CYPIR [6, 11]: 0.0
- herbicidal effect rating, CYPIR [6, 12]: 0.0
- herbicidal effect rating, CYPIR [6, 13]: 0.0
- herbicidal effect rating, CYPIR [6, 14]: 0.0

SMILES: Cn1c(C(F)(F)F)cc(=O)n(-c2ccc3snc(C(=O)NS(=O)(=O)Cc4ccc(Cl)cc4)c3c2)c1=O [Example 468, 1,2-Benzisothiazole-3-carboxamide, N-[(p-chlorobenzyl)sulfonyl]-5-[3,6-dihydro-3-methyl-2,6-dioxo-4-(trifluoromethyl)-1(2H)-pyrimidinyl]-]
- ORYSAT herbicidal rating (rice tolerance) ([1]; 0.0320 kg/ha): 3.0
- ORYSAT herbicidal rating (rice tolerance) ([1]; 0.0620 kg/ha): 3.0
- ORYSAT herbicidal rating (rice tolerance) ([1]; 0.1250 kg/ha): 5.0
- ORYSAT herbicidal rating (rice tolerance) ([1]; 0.2500 kg/ha): 5.0
- MOOVA herbicidal rating ([2]; 0.0320 kg/ha, preemergence): 5.0
- MOOVA herbicidal rating ([2]; 0.0620 kg/ha, preemergence): 6.0
- MOOVA herbicidal rating ([2]; 0.1250 kg/ha, preemergence): 7.0
- MOOVA herbicidal rating ([2]; 0.2500 kg/ha, preemergence): 5.0
- ECHORC herbicidal rating ([3]; 0.0320 kg/ha, preemergence): 7.0
- ECHORC herbicidal rating ([3]; 0.0620 kg/ha, preemergence): 7.0
- ECHORC herbicidal rating ([3]; 0.1250 kg/ha, preemergence): 9.0
- ECHORC herbicidal rating ([3]; 0.2500 kg/ha, preemergence): 9.0
- SAGPY herbicidal rating ([4]; 0.0320 kg/ha, preemergence): 3.0
- SAGPY herbicidal rating ([4]; 0.0620 kg/ha, preemergence): 4.0
- SAGPY herbicidal rating ([4]; 0.1250 kg/ha, preemergence): 4.0
- SAGPY herbicidal rating ([4]; 0.2500 kg/ha, preemergence): 5.0
- CYPSE herbicidal rating ([5]; 0.0320 kg/ha, preemergence): 2.0
- CYPSE herbicidal rating ([5]; 0.0620 kg/ha, preemergence): 6.0
- CYPSE herbicidal rating ([5]; 0.1250 kg/ha, preemergence): 7.0
- CYPSE herbicidal rating ([5]; 0.2500 kg/ha, preemergence): 5.0
- CYPIR herbicidal rating ([6]; 0.0320 kg/ha, preemergence): 5.0
- CYPIR herbicidal rating ([6]; 0.0620 kg/ha, preemergence): 6.0
- CYPIR herbicidal rating ([6]; 0.1250 kg/ha, preemergence): 6.0
- CYPIR herbicidal rating ([6]; 0.2500 kg/ha, preemergence): 5.0
